The source of these data is PMC9578043 (Journal of medicinal chemistry, 2021).

A short description of data set [1]: Liver microsomal stability, human. Type of data set: in vitro ADME. A general note: Liver microsomes are vesicles of endoplasmic reticulum, rich in cytochrome P450 enzymes.
Data set [2] is described as follows: Liver microsomal stability, rat. It counts as in vitro ADME.
Data set [3] can be described thus: Liver microsomal stability, mouse. Type of data set: in vitro ADME.
A short description of data set [4]: Liver microsomal stability, monkey. Particulars: for half-life: cynomolgus monkey. It counts as in vitro ADME, cynomolgus monkey.
For data set [5], the system named is ATTR-CM. Particulars: 28 day phase II, cited from earlier work.
Data set [6] has as its system ATTR-CM. Particulars: 441 ATTR-CM patients, compared to placebo; cited from earlier work.
Data set [7] concerns hereditary ATTR. Particulars: patients with hereditary ATTR; cited from earlier work.
The test system of data set [8] is TTR. Particulars: ITC; cited from earlier work. A general note: Isothermal titration calorimetry measures the heat released or taken up as one component is titrated into another.
Data set [9] has as its system serum RBP4 levels. More on the design: species or system mice. Particulars: mouse, in vivo, po.
Data set [10] is described as follows: Kinetic solubility in PBS. Type of data set: physicochemical. To be noted: pH 7.4.
Data set [11] concerns the target CYP2C9 (Homo sapiens, UniProt P11712). Kind of data set: CYP inhibition 2C9. It counts as in vitro ADME.
For data set [12], the target named is CYP2C19 (Homo sapiens, UniProt P33261). Kind of data set: CYP inhibition 2C19. Type of data set: in vitro ADME.
Sequence of CYP2C19 (P33261 whole entry): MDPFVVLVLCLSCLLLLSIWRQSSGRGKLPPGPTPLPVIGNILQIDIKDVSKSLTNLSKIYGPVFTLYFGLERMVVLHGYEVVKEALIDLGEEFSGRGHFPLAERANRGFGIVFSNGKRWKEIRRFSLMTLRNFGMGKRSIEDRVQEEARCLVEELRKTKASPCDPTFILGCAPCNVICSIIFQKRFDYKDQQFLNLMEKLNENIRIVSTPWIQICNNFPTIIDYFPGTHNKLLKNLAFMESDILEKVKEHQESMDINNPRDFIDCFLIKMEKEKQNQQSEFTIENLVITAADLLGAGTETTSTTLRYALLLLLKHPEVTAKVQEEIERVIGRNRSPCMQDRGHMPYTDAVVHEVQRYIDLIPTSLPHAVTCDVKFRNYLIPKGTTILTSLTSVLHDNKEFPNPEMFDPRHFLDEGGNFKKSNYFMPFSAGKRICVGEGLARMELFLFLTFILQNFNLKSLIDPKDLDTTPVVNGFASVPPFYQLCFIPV
For data set [13], the target named is CYP2D6 (Homo sapiens, UniProt P10635). Put plainly: CYP inhibition 2D6. Type of data set: in vitro ADME.
Sequence of CYP2D6 (P10635 whole entry): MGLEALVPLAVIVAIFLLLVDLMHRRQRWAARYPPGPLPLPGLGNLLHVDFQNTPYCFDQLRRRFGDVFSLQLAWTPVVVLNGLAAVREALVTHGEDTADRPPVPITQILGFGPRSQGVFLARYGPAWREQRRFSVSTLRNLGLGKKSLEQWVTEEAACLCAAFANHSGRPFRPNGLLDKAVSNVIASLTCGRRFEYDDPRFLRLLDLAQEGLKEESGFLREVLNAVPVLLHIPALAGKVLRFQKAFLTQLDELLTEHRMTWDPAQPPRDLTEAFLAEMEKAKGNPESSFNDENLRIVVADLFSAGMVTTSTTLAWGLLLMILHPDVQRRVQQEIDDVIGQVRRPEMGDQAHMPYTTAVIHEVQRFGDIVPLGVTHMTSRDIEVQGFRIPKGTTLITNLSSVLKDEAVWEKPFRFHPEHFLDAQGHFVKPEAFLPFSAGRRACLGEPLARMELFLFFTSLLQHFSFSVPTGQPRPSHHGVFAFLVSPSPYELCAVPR
Data set [14] has as its target CYP3A4 (Homo sapiens, UniProt P08684). Kind of data set: CYP inhibition 3A4. Type of data set: in vitro ADME.
A short description of data set [15]: Plasma protein binding, human. Type of data set: in vitro ADME.
Data set [16] in a line: Plasma protein binding, rat. It counts as in vitro ADME.

Sequence of CYP3A4 (P08684 whole entry): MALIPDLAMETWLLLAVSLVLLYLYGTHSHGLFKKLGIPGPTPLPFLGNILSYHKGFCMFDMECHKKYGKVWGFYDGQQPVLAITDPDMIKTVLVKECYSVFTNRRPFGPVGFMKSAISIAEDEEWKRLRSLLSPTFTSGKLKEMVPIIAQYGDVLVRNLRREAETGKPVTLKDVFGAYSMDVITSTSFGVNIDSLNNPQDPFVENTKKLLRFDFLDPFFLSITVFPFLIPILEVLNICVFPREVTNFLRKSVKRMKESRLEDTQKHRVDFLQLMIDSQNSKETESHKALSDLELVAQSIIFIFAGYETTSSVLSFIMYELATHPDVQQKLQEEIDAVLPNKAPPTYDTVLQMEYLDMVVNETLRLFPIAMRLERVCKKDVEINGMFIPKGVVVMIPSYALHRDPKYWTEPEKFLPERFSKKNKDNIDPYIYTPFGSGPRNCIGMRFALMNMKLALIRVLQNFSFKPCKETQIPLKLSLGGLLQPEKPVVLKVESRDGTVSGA
Sequence of CYP2C9 (P11712 whole entry): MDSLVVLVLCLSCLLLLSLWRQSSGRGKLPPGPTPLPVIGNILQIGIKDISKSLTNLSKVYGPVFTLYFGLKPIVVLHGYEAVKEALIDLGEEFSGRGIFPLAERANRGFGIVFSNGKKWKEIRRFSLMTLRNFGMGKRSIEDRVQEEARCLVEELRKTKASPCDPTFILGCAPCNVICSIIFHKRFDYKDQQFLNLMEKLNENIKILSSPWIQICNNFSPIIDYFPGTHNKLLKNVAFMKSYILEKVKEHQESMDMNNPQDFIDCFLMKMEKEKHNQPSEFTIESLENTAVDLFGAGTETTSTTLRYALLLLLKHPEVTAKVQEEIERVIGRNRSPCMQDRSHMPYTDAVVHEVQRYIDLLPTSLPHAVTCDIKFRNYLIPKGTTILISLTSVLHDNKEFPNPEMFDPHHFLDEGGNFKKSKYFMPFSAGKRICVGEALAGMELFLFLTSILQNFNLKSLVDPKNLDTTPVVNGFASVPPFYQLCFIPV

As for `Cc1n[nH]c(C)c1N1CCN(c2cc(C(=O)O)ccc2Cl)CC1` [20e, 4-chloro-3-(4-(3,5-dimethyl-1H-pyrazol-4-yl)piperazin-1-yl)benzoic acid], the half-life in data set [1] (liver microsomes), in [2] (liver microsomes), in [3] (liver microsomes) and in data set [4] (liver microsomes) was more than 1 h throughout.
On to `Cc1ccc(C(=O)O)cc1N1CCN(c2c(C)n[nH]c2C)CC1` [20c, 3-(4-(3,5-dimethyl-1H-pyrazol-4-yl)piperazin-1-yl)-4-methylbenzoic acid], for which the half-life in data set [1] (microsomes), in data set [2] (microsomes), in data set [3] (microsomes) and in data set [4] (microsomes) was more than 1 h in each case.
Turning to `Cc1n[nH]c(C)c1CCCOc1cc(C(=O)O)ccc1F` [AG10, acoramidis], in [5] (ATTR-CM patients with symptomatic chronic heart failure), the “stabilization of TTR” value is “near-complete stabilization”. For the same molecule, in data set [5], the tolerability result is “well tolerated”.
Take `O=C(O)c1ccc2nc(-c3cc(Cl)cc(Cl)c3)oc2c1` [tafamidis]: in data set [6], the “reduction of the rate of cardiovascular-related hospitalizations” value is reported as 32% and the “reduction of the risk of death” value was 30%. In [7], the “patients who do not respond” value was “Approximately 30%”. For the same molecule, the ΔH in data set [8] was -5.00 kcal/mol.
`Cc1cc(F)c(N2CCN(c3c(C)n[nH]c3C)CC2)cc1C(=O)O` [20i, 5-(4-(3,5-dimethyl-1H-pyrazol-4-yl)piperazin-1-yl)-4-fluoro-2-methylbenzoic acid]: the half-life in data set [1] (liver microsomes), in data set [2] (liver microsomes), in data set [3] (liver microsomes) and in data set [4] (liver microsomes) was more than 1 h in each case.
On to `Cc1n[nH]c(C)c1N1CCN(c2cc(C(=O)O)ccc2C(F)(F)F)CC1` [20d, 3-(4-(3,5-dimethyl-1H-pyrazol-4-yl)piperazin-1-yl)-4-(trifluoromethyl)benzoic acid], for which the half-life in [1] (microsomes), in data set [2] (microsomes), in data set [3] (microsomes) and in [4] (microsomes) was more than 1 h each time.
Take `Cc1n[nH]c(C)c1N1CCN(c2cc(-c3nn[nH]n3)ccc2F)CC1` [compound 54, 1-(3,5-dimethyl-1H-pyrazol-4-yl)-4-(2-fluoro-5-(2H-tetrazol-5-yl)phenyl)piperazine]: the half-life in [1] (microsomes) was 1.26 h; in data set [2] (microsomes), less than 1 h; in data set [3] (microsomes), less than 1 h; in data set [4] (microsomes), less than 1 h. Further, in [1] (microsomes), the microsomal CLint came out at 18.4 µL/min/mg.
With `Cc1n[nH]c(C)c1N1CCN(c2cc(C(=O)O)ccc2F)CC1` [compound 14, 3-(4-(3,5-dimethyl-1H-pyrazol-4-yl)piperazin-1-yl)-4-fluorobenzoic acid], the half-life in data set [1] (microsomes), in data set [2] (microsomes), in data set [3] (microsomes) and in data set [4] (microsomes) was more than 1 h throughout. Further, the “changes in serum TTR levels” value in [9] is recorded as “No changes”.
`COc1ccc(C(=O)O)cc1N1CCN(c2c(C)n[nH]c2C)CC1` [20b, 3-(4-(3,5-dimethyl-1H-pyrazol-4-yl)piperazin-1-yl)-4-methoxybenzoic acid] returned a solubility in data set [10] not below 200 µM. In addition, the half-life in data set [1] (liver microsomes), in data set [2] (liver microsomes), in data set [3] (liver microsomes) and in data set [4] (liver microsomes) was more than 1 h throughout. The microsomal CLint was less than 23.1 µL/min/mg in data set [1] (liver microsomes); less than 23.1 µL/min/mg in [2] (liver microsomes); less than 23.1 µL/min/mg in [3] (liver microsomes); less than 23.1 µL/min/mg in data set [4] (monkey, liver microsomes). The fraction remaining at 0.5 h worked out at 108% in data set [1] (liver microsomes); 101% in [2] (liver microsomes); 102% in [3] (liver microsomes); 102% in data set [4] (monkey, liver microsomes). The inhibition at 10 µM in [11] turned out to be 1.4%; in [12], 4.2%; in data set [13] it was 8%; in [14] it was 19.6%. Besides, the fraction unbound in [15] was 0.25; in data set [16], 0.22.

One may read the half-life as how long it takes for the measured level to halve. The term microsomal CLint denotes a measure of how fast metabolising enzymes remove a compound, apart from limits set by blood flow. For orientation: solubility means how much of the substance goes into solution per volume. By inhibition is commonly meant the relative decrease from the control value, in per cent. The term fraction unbound denotes the share of the substance not bound to proteins or other matrix.
